In US11613531B2, “Inhibitors of RHO associated coiled-coil containing protein kinase” (Kadmon Corporation, LLC, priority 2017, dated 2023):

tested on: ppMlc (T18/S19) levels in A7R5 cells; test: A7R5 in-cell ELISA (pMLC); format: cell-based, Rat; conditions: A7R5 cells, 1 μM compound
Experimental: Determination of Compounds ROCK Inhibitory Activity in A7R5Cells.
Rat aortic smooth muscle cell line, A7R5, cells were seeded with density of 5,000 cells/well in a 96-well plates for 24 hours and subsequently treated for 90 min with testing compounds. Cells were then fixed and processed according to the In-Cell ELISA Colorimetric Detection Kit manual (Thermo Scientific).
An A7R5 in-cell Elisa assay was performed. A7R5 cells were treated with 9 points 2 fold serial dilution of compounds and ppMlc (T18/S19) levels were determined to calculate cellular IC50 values of the compounds. Compounds of the invention gave in cell IC50s under 100 nM.
In vitro activities for the compounds were measured with Z′-lyte kinase kit (ThermoFisher Scientific). The percent inhibition rate was calculated by normalizing the kinase activity value obtained with 1 μM compound treatment against DMSO control value and then applied to the formula, [1-(compound/DMSO)]×100%. IC50s were calculated using the nonlinear regression curve fit function of the GraphPad Prism software with kinase activities data measured with 9 points 2-fold serial dilution of compounds treatment. In cell pMLC IC50s were calculated with data obtained from A7R5 cell experiments. A7R5 cells were treated with 9 points 2-fold serial dilution of compounds and ppMlc (T18/S19) levels were determined to calculate cellular IC50 values of the compounds using the nonlinear regression curve fit function of the GraphPad Prism software. NIH3T3 cells stably expressing ACTA2-promoter-driven-luciferase were applied to measure ROCK compounds functional IC50s in cells. Cells were plated in 96 well plates to confluence and treated with 9 points serial dilution of compounds in combination with TGFβ1 for 24 hr. Luciferase activities were measured and compound's IC50s were calculated using the nonlinear regression curve fit function of the GraphPad Prism software.

Compound | pMLC % inh A7R5 @ [conc]
c1cc(Nc2ccc3[nH]ncc3c2)nc(N2CCCC(C3CCCNC3)C2)n1 (stereo not shown) [Example 86, N-(2-([3,3′-bipiperidin]-1-yl)pyrimidin-4-yl)-1H-indazol-5-amine] | 377.49%

same assay, conditions: Rattus norvegicus, A7R5, A7R5 cells, 1 μM compound; read-out: pMLC % inh A7R5 @ [conc]

Compound | inhibition at 1 µM
O=C1CN(c2nccc(Nc3ccc4[nH]ncc4c3)n2)CCN1 [Example 17, 4-(4-((1H-indazol-5-yl)amino)pyrimidin-2-yl)piperazin-2-one] | 11.2%
c1cc(Nc2ccc3[nH]ncc3c2)nc(N2CCC3(CC2)CNC3)n1 [Example 70, N-(2-(2,7-diazaspiro[3.5]nonan-7-yl)pyrimidin-4-yl)-1H-indazol-5-amine] | -9.7%
c1cc(Nc2ccc3[nH]ncc3c2)nc(N2CCC3(CNC3)C2)n1 [Example 71, N-(2-(2,6-diazaspiro[3.4]octan-6-yl)pyrimidin-4-yl)-1H-indazol-5-amine] | -12.8%
c1cc(Nc2ccc3[nH]ncc3c2)nc(N2CCC3(CC2)CNCCO3)n1 [Example 72, N-(2-(1-oxa-4,9-diazaspiro[5.5]undecan-9-yl)pyrimidin-4-yl)-1H-indazol-5-amine] | -6.7%
c1cc(Nc2ccc3[nH]ncc3c2)nc(N2CCC3(CCCNC3)C2)n1 (stereo not shown) [Example 73, N-(2-(2,7-diazaspiro[4.5]decan-2-yl)pyrimidin-4-yl)-1H-indazol-5-amine] | -4.8%
c1cc(Nc2ccc3[nH]ncc3c2)nc(N2CCCC3(CCNC3)C2)n1 (stereo not shown) [Example 74, N-(2-(2,7-diazaspiro[4.5]decan-7-yl)pyrimidin-4-yl)-1H-indazol-5-amine] | 2.7%
c1cc(Nc2ccc3[nH]ncc3c2)nc(N2CC3(CCNC3)C2)n1 [Example 75, N-(2-(2,6-diazaspiro[3.4]octan-2-yl)pyrimidin-4-yl)-1H-indazol-5-amine] | -8.7%
c1cc(Nc2ccc3[nH]ncc3c2)nc(N2CC3(CCNCC3)C2)n1 [Example 76, N-(2-(2,7-diazaspiro[3.5]nonan-2-yl)pyrimidin-4-yl)-1H-indazol-5-amine] | 0%
c1cc(Nc2ccc3[nH]ncc3c2)nc(N2CC3(CNC3)C2)n1 [Example 77, N-(2-(2,6-diazaspiro[3.3]heptan-2-yl)pyrimidin-4-yl)-1H-indazol-5-amine] | -2.9%
c1cc(Nc2ccc3[nH]ncc3c2)nc(N2CC3CNCC(C3)C2)n1 [Example 79, N-(2-(3,7-diazabicyclo[3.3.1]nonan-3-yl)pyrimidin-4-yl)-1H-indazol-5-amine] | 9.8%
c1cc(Nc2ccc3[nH]ncc3c2)nc(N2CCC3NCCC3C2)n1 (stereo not shown) [Example 80, N-(2-(octahydro-5H-pyrrolo[3,2-c]pyridin-5-yl)pyrimidin-4-yl)-1H-indazol-5-amine] | 11.9%
c1cc(Nc2ccc3[nH]ncc3c2)nc(N2C[C@@H]3CN[C@@H]3C2)n1 [Example 81, N-(2-((1S,5S)-3,6-diazabicyclo[3.2.0]heptan-3-yl)pyrimidin-4-yl)-1H-indazol-5-amine] | 13.2%
c1cc(Nc2ccc3[nH]ncc3c2)nc(N2CCC(C3CNC3)C2)n1 (stereo not shown) [Example 83, N-(2-(3-(azetidin-3-yl)pyrrolidin-1-yl)pyrimidin-4-yl)-1H-indazol-5-amine] | 2.1%
Cc1cc(Nc2ccc3[nH]ncc3c2)nc(N2CCC3(CC2)CNC3)n1 [Example 121, N-(6-methyl-2-(2,7-diazaspiro[3.5]nonan-7-yl)pyrimidin-4-yl)-1H-indazol-5-amine] | -7.3%
Cc1cc(Nc2ccc3[nH]ncc3c2)nc(N2CCC3(CNC3)C2)n1 [Example 122, N-(6-methyl-2-(2,6-diazaspiro[3.4]octan-6-yl)pyrimidin-4-yl)-1H-indazol-5-amine] | -6.8%
Cc1cc(Nc2ccc3[nH]ncc3c2)nc(N2CCC3(CC2)CNCCO3)n1 [Example 123, N-(6-methyl-2-(1-oxa-4,9-diazaspiro[5.5]undecan-9-yl)pyrimidin-4-yl)-1H-indazol-5-amine] | -0.8%
Cc1cc(Nc2ccc3[nH]ncc3c2)nc(N2CCC3(CCCNC3)C2)n1 (stereo not shown) [Example 124, N-(6-methyl-2-(2,7-diazaspiro[4.5]decan-2-yl)pyrimidin-4-yl)-1H-indazol-5-amine] | -7.6%
Cc1cc(Nc2ccc3[nH]ncc3c2)nc(N2CCCC3(CCNC3)C2)n1 (stereo not shown) [Example 125, N-(6-methyl-2-(2,7-diazaspiro[4.5]decan-7-yl)pyrimidin-4-yl)-1H-indazol-5-amine] | 0.7%

same assay, conditions: Rattus norvegicus, A7R5, A7R5 cells, 10 μM compound; read-out: pMLC % inh A7R5 @ [conc]

Compound | inhibition at 10 µM
c1ccc(CC2CN(c3nc4c(c(Nc5ccc6[nH]ncc6c5)n3)COC4)CCCN2)cc1 (stereo not shown) [Example 2, 2-(3-benzyl-1,4-diazepan-1-yl)-N-(1H-indazol-5-yl)-5,7-dihydrofuro[3,4-d]pyrimidin-4-amine] | 72.4%
Cc1cnc(N2CCCNCC2)nc1Nc1ccc2[nH]ncc2c1 [Example 3, N-(2-(1,4-diazepan-1-yl)-5-methylpyrimidin-4-yl)-1H-indazol-5-amine] | 54.4%
Cc1nc(N2CCCNC(C(C)C)C2)nc(Nc2ccc3[nH]ncc3c2)c1C (stereo not shown) [Example 16, N-(2-(3-isopropyl-1,4-diazepan-1-yl)-5,6-dimethylpyrimidin-4-yl)-1H-indazol-5-amine] | 32.1%
Cc1nc(N2CCCNC(c3ccccc3)C2)nc(Nc2ccc3[nH]ncc3c2)c1C (stereo not shown) [Example 20, N-(5,6-dimethyl-2-(3-phenyl-1,4-diazepan-1-yl)pyrimidin-4-yl)-1H-indazol-5-amine] | 37.6%
Cc1nc(N2CCNC(c3ccccc3)CC2)nc(Nc2ccc3[nH]ncc3c2)c1C (stereo not shown) [Example 21, N-(5,6-dimethyl-2-(5-phenyl-1,4-diazepan-1-yl)pyrimidin-4-yl)-1H-indazol-5-amine] | 21.1%
Cc1nc(N2CC(C)NC(C)C2)nc(Nc2ccc3[nH]ncc3c2)c1C (stereo not shown) [Example 24, N-(2-(3,5-dimethylpiperazin-1-yl)-5,6-dimethylpyrimidin-4-yl)-1H-indazol-5-amine] | 22.6%
c1cncc(-c2ccc(Nc3ccnc(N4CCNCC4)n3)cc2)c1 [Example 40, 2-(piperazin-1-yl)-N-(4-(pyridin-3-yl)phenyl)pyrimidin-4-amine] | 13.4%
c1cc(Nc2ccc(-c3nnn[nH]3)cc2)nc(N2CCNCC2)n1 [Example 42, N-(4-(1H-tetrazol-5-yl)phenyl)-2-(piperazin-1-yl)pyrimidin-4-amine] | 9.1%
COc1cnc(N2CCCNC(c3ccccc3)C2)nc1Nc1ccc2[nH]ncc2c1 (stereo not shown) [Example 48, N-(5-methoxy-2-(3-phenyl-1,4-diazepan-1-yl)pyrimidin-4-yl)-1H-indazol-5-amine] | 51.1%
COc1cnc(N2CCNC(c3ccccc3)CC2)nc1Nc1ccc2[nH]ncc2c1 (stereo not shown) [Example 50, N-(5-methoxy-2-(5-phenyl-1,4-diazepan-1-yl)pyrimidin-4-yl)-1H-indazol-5-amine] | 35.5%
COc1cnc(N2CC(C)NC(C)C2)nc1Nc1ccc2[nH]ncc2c1 (stereo not shown) [Example 52, N-(2-(3,5-dimethylpiperazin-1-yl)-5-methoxypyrimidin-4-yl)-1H-indazol-5-amine] | 29.5%
Cc1cnc(N2CCCNC(C(C)C)C2)nc1Nc1ccc2[nH]ncc2c1 (stereo not shown) [Example 92, N-(2-(3-isopropyl-1,4-diazepan-1-yl)-5-methylpyrimidin-4-yl)-1H-indazol-5-amine] | 19.6%
Cc1cnc(N2CCNC(C(C)C)CC2)nc1Nc1ccc2[nH]ncc2c1 (stereo not shown) [Example 93, N-(2-(5-isopropyl-1,4-diazepan-1-yl)-5-methylpyrimidin-4-yl)-1H-indazol-5-amine] | 21.1%
Cc1cnc(N2CCNC(c3ccccc3)CC2)nc1Nc1ccc2[nH]ncc2c1 (stereo not shown) [Example 94, N-(5-methyl-2-(5-phenyl-1,4-diazepan-1-yl)pyrimidin-4-yl)-1H-indazol-5-amine] | 19.2%
CCC1CN(c2ncc(C)c(Nc3ccc4[nH]ncc4c3)n2)CCN1 (stereo not shown) [Example 99, N-(2-(3-ethylpiperazin-1-yl)-5-methylpyrimidin-4-yl)-1H-indazol-5-amine] | 29.6%
Cc1cnc(N2CCCNC(c3ccccc3)C2)nc1Nc1ccc2[nH]ncc2c1 (stereo not shown) [Example 103, N-(5-methyl-2-(3-phenyl-1,4-diazepan-1-yl)pyrimidin-4-yl)-1H-indazol-5-amine] | 38.3%
Cc1cc(Nc2ccc3[nH]ncc3c2)nc(N2CCNC(c3ccccc3)CC2)n1 (stereo not shown) [Example 108, N-(6-methyl-2-(5-phenyl-1,4-diazepan-1-yl)pyrimidin-4-yl)-1H-indazol-5-amine] | 47.3%
Cc1cc(Nc2ccc3[nH]ncc3c2)nc(N2CCCNC(c3ccccc3)C2)n1 (stereo not shown) [Example 112, N-(6-methyl-2-(3-phenyl-1,4-diazepan-1-yl)pyrimidin-4-yl)-1H-indazol-5-amine] | 56.9%

same assay, conditions: Rattus norvegicus, A7R5, A7R5 cells, ppMlc (T18/S19)

Compound | IC50
c1ccc(CC2CN(c3nc4c(c(Nc5ccc6[nH]ncc6c5)n3)COC4)CCCN2)cc1 (stereo not shown) [Example 2, 2-(3-benzyl-1,4-diazepan-1-yl)-N-(1H-indazol-5-yl)-5,7-dihydrofuro[3,4-d]pyrimidin-4-amine] | 2500 nM
COc1cnc(N2CCCNC(c3ccccc3)C2)nc1Nc1ccc2[nH]ncc2c1 (stereo not shown) [Example 48, N-(5-methoxy-2-(3-phenyl-1,4-diazepan-1-yl)pyrimidin-4-yl)-1H-indazol-5-amine] | 2580 nM
Cc1cc(Nc2ccc3[nH]ncc3c2)nc(N2CCCNC(c3ccccc3)C2)n1 (stereo not shown) [Example 112, N-(6-methyl-2-(3-phenyl-1,4-diazepan-1-yl)pyrimidin-4-yl)-1H-indazol-5-amine] | 1290 nM
